Measurements from patent US20050197350A1, “Novel quinoline, tetrahydroquinazoline, and pyrimidine derivatives and methods of treatment related to the use thereof” (TAISHO PHARMACEUTICAL CO., LTD., priority 2003, published 2005).

test system: MCH receptors; experiment: MCH receptor activity class (method not given); details: MCH receptor activity class 1-3 (percent of control at 10^-7 M or IC50)

| Compound | class |
| --- | --- |
| CCc1cccc(C)c1NC(=O)NC[C@H]1CC[C@@H](Nc2nc3c(c(N(C)C)n2)CCCC3)CC1 [compound 2454] | 1 (Class 1: The value of percent of control at 10^−7 M was less than 40% or the value of IC50 was less than 50 nM.) |
| CCCc1ccccc1NC(=O)NC[C@H]1CC[C@@H](Nc2nc3c(c(N(C)C)n2)CCCC3)CC1 [compound 2474] | 3 (Class 3 The value of percent of control at 10^−7 M was more than 60% or the value of IC50 was more than 200 nM.) |
| Cc1cc(F)ccc1NC(=S)N[C@H]1CC[C@@H](Nc2nccc(N(C)C)n2)CC1 [compound 2340] | 3 (Class 3 The value of percent of control at 10^−7 M was more than 60% or the value of IC50 was more than 200 nM.) |

same assay, conditions: MCH receptor; class by percent of control at 10^-7 M or IC50

| Compound | class |
| --- | --- |
| CN(C)c1nc(N[C@H]2CC[C@@H](NC(=S)Nc3cc(Cl)ccc3Cl)CC2)nc2c1CCCC2 [compound 1936] | 3 (Class 3 The value of percent of control at 10^−7 M was more than 60% or the value of IC50 was more than 200 nM.) |
| CN(C)c1cc(N[C@H]2CC[C@@H](CNC(=O)c3cccc(Cl)c3F)CC2)nc2ccccc12 [compound 186] | 3 (Class 3 The value of percent of control at 10^−7 M was more than 60% or the value of IC50 was more than 200 nM.) |
| CN(C)c1cc(N[C@H]2CC[C@@H](NC(=O)c3ccc(Cl)c([N+](=O)[O-])c3)CC2)nc2ccccc12 [compound 27, 4-chloro-N-(cis-4-{[4-(dimethylamino)quinolin-2-yl]amino}cyclohexyl)-3-nitrobenzamide] | 1 (Class 1: The value of percent of control at 10^−7 M was less than 40% or the value of IC50 was less than 50 nM.) |
| CN(C)c1nc(N[C@H]2CC[C@@H](NC(=S)Nc3ccccc3C(F)(F)F)CC2)nc2c1CCCC2 [compound 1969] | 3 (Class 3 The value of percent of control at 10^−7 M was more than 60% or the value of IC50 was more than 200 nM.) |

same assay, conditions: activity class 1-3: percent of control at 10^-7 M or IC50

| Compound | class |
| --- | --- |
| COC(=O)NC[C@H]1CC[C@@H](Nc2nc3c(c(N(C)C)n2)CCCC3)CC1 [compound 1615] | 3 (Class 3 The value of percent of control at 10^−7 M was more than 60% or the value of IC50 was more than 200 nM.) |

same assay, conditions: activity class per percent of control at 10^-7 M or IC50

| Compound | class |
| --- | --- |
| CN(C)c1nc(N[C@H]2CC[C@@H](NC(=O)c3ccccc3Sc3ccccc3C#N)CC2)nc2c1CCCC2 [compound 1011] | 3 (Class 3 The value of percent of control at 10^−7 M was more than 60% or the value of IC50 was more than 200 nM.) |
| CC(C(=O)N[C@H]1CC[C@@H](Nc2nc3c(c(N(C)C)n2)CCCC3)CC1)c1ccc(-c2ccccc2)c(F)c1 (relative stereo) [compound 984] | 2 (Class 2: The value of percent of control at 10^−7 M was from 40% to 60% or the value of IC′50 was from 50 nM to 200 nM.) |
| COC(=O)c1ccccc1Sc1nc2sccn2c1CN[C@H]1CC[C@@H](Nc2cc(N(C)C)c3ccccc3n2)CC1 [compound 1116] | 3 (Class 3 The value of percent of control at 10^−7 M was more than 60% or the value of IC50 was more than 200 nM.) |
| COc1cc(CN[C@H]2CC[C@@H](Nc3cc(N(C)C)c4ccccc4n3)CC2)cc(OC)c1OC [compound 1099] | 3 (Class 3 The value of percent of control at 10^−7 M was more than 60% or the value of IC50 was more than 200 nM.) |

same assay, conditions: class 1-3 by percent of control at 10^-7 M or IC50

| Compound | class |
| --- | --- |
| CN(C)c1ccnc(N[C@H]2CC[C@@H](CNC(=O)c3c(Cl)cccc3Cl)CC2)n1 [compound 439] | 3 (Class 3 The value of percent of control at 10^−7 M was more than 60% or the value of IC50 was more than 200 nM.) |
| CN(C)c1ccnc(N[C@H]2CC[C@@H](CNC(=O)Cc3ccccc3Br)CC2)n1 [compound 425] | 2 (Class 2: The value of percent of control at 10^−7 M was from 40% to 60% or the value of IC′50 was from 50 nM to 200 nM.) |
| CN(C)c1nc(N[C@H]2CC[C@@H](NC(=O)c3cccc(C(F)(F)F)c3F)CC2)nc2c1CCCC2 [compound 500] | 3 (Class 3 The value of percent of control at 10^−7 M was more than 60% or the value of IC50 was more than 200 nM.) |

same assay, conditions: class by percent of control at 10^-7 M or IC50

| Compound | class |
| --- | --- |
| CN(C)c1cc(N[C@H]2CC[C@@H](NC(=O)Cc3ccccc3I)CC2)nc2ccccc12 [compound 681, N-(cis-4-{[4-(dimethylamino)quinolin-2-yl]amino}cyclohexyl)-2-(2-iodophenyl)acetamide] | 2 (Class 2: The value of percent of control at 10^−7 M was from 40% to 60% or the value of IC′50 was from 50 nM to 200 nM.) |
| COc1ccccc1NC(=O)N[C@H]1CC[C@@H](Nc2nc3c(c(N(C)C)n2)CCCC3)CC1 [compound 1833] | 3 (Class 3 The value of percent of control at 10^−7 M was more than 60% or the value of IC50 was more than 200 nM.) |
| Cc1ccc(-c2ccc(C(=O)NC[C@H]3CC[C@@H](Nc4nccc(N(C)C)n4)CC3)o2)c([N+](=O)[O-])c1 [compound 938] | 3 (Class 3 The value of percent of control at 10^−7 M was more than 60% or the value of IC50 was more than 200 nM.) |
| COc1cc(NC(=O)N[C@H]2CC[C@@H](Nc3nc4c(c(N(C)C)n3)CCCC4)CC2)cc(OC)c1 [compound 1868] | 3 (Class 3 The value of percent of control at 10^−7 M was more than 60% or the value of IC50 was more than 200 nM.) |
| CN(C)c1cc(N[C@H]2CC[C@@H](NC(=O)c3cc(Cl)ccc3O)CC2)nc2ccccc12 [compound 780, 5-chloro-N-(cis-4-{[4-(dimethylamino)quinolin-2-yl]amino}cyclohexyl)-2-hydroxybenzamide] | 2 (Class 2: The value of percent of control at 10^−7 M was from 40% to 60% or the value of IC′50 was from 50 nM to 200 nM.) |
| COc1cccc(CNC(=S)N[C@H]2CC[C@@H](Nc3nc4c(c(N(C)C)n3)CCCC4)CC2)c1OC [compound 1768] | 3 (Class 3 The value of percent of control at 10^−7 M was more than 60% or the value of IC50 was more than 200 nM.) |
| CC(C)c1ccc(NC(=O)N[C@H]2CC[C@@H](Nc3nc4c(c(N(C)C)n3)CCCC4)CC2)cc1 [compound 1829] | 3 (Class 3 The value of percent of control at 10^−7 M was more than 60% or the value of IC50 was more than 200 nM.) |
| CN(C)c1cc(N[C@H]2CC[C@@H](NC(=O)[C@H](Cc3cn(Cc4ccccc4)cn3)NC(=O)OC(C)(C)C)CC2)nc2ccccc12 [compound 709] | 3 (Class 3 The value of percent of control at 10^−7 M was more than 60% or the value of IC50 was more than 200 nM.) |
| Cc1onc(-c2ccccc2Cl)c1C(=O)N[C@H]1CC[C@@H](Nc2nccc(N(C)C)n2)CC1 [compound 316] | 3 (Class 3 The value of percent of control at 10^−7 M was more than 60% or the value of IC50 was more than 200 nM.) |
| Cc1cc(C(=O)NC[C@H]2CC[C@@H](Nc3nccc(N(C)C)n3)CC2)cc(C)c1OCc1ccccc1 [compound 946] | 3 (Class 3 The value of percent of control at 10^−7 M was more than 60% or the value of IC50 was more than 200 nM.) |
| CN(C)c1cc(N[C@H]2CC[C@@H](NC(=O)c3ccccc3COc3ccccc3)CC2)nc2ccccc12 [compound 760] | 3 (Class 3 The value of percent of control at 10^−7 M was more than 60% or the value of IC50 was more than 200 nM.) |

same assay, conditions: class by percent of control at 10^−7 M or IC50

| Compound | class |
| --- | --- |
| CCOc1ccc(C(=O)N[C@H]2CC[C@@H](Nc3nc(C)c(C)c(N(C)C)n3)CC2)cc1 [compound 2851] | 3 (Class 3 The value of percent of control at 10^−7 M was more than 60% or the value of IC50 was more than 200 nM.) |
| Cc1cc(N(C)C)nc(NC[C@H]2CC[C@@H](NC(=O)c3ccc(F)c(C)c3)CC2)n1 [compound 2738] | 3 (Class 3 The value of percent of control at 10^−7 M was more than 60% or the value of IC50 was more than 200 nM.) |
| CCOc1cc(OCC)cc(C(=O)N[C@H]2CC[C@@H](Nc3nc(C)c(C)c(N(C)C)n3)CC2)c1 [compound 2860] | 1 (Class 1: The value of percent of control at 10^−7 M was less than 40% or the value of IC50 was less than 50 nM.) |
